Legend:
[1] = system: P. falciparum 3D7 trophozoites; assay: Metabolomic fingerprint profiling LC-MS; assay type: cell-based, Plasmodium falciparum; design: UDP-D-glucose / ADP-D-glucose: unit not given here
P. falciparum = assay: EC50 listed in S2 Table Metabolomics (used to set the concentration tested); assay type: cell-based; details: Plasmodium falciparum; EC50 used for Factor_XEC50 in metabolomics; read-out: EC50_nM
[2] = metabolite level change after treatment

EC50 (P. falciparum): 25.5 nM
Compound: CC1CN(C(=O)c2sc3ccccc3c2Cl)CC(C)O1 (centres unmarked) [MMV020492]
Acetyllysine ([1]; S2 Table Metabolomics, metabolite Acetyllysine): -0.0147 | N-acetyl-L-ornithine ([1]; S2 Table Metabolomics, metabolite N-acetyl-L-ornithine): -0.05191 | N-carbamoyl-L-aspartate ([1]; S2 Table Metabolomics, metabolite N-carbamoyl-L-aspartate): 0.1461 | NADPH ([1]; S2 Table Metabolomics, metabolite NADPH): 1.076 | dAMP ([1]; S2 Table Metabolomics, metabolite dAMP): 0.05557 | dCMP ([1]; S2 Table Metabolomics, metabolite dCMP): 0.1257 | dTDP ([1]; S2 Table Metabolomics, metabolite dTDP): 0.2505 | dTMP ([1]; S2 Table Metabolomics, metabolite dTMP): 0.3742 | dTTP ([1]; S2 Table Metabolomics, metabolite dTTP): 0.08279 | dihydroorotate ([1]; S2 Table Metabolomics, metabolite dihydroorotate): 0.2809 | orotate ([1]; S2 Table Metabolomics, metabolite orotate): 0.03682 | DLH ([1]; S2 Table Metabolomics, peptide DLH): 0.1005 | DLS/SDL/SID ([1]; S2 Table Metabolomics, peptide DLS/SDL/SID): 0.08855 | PD ([1]; S2 Table Metabolomics, peptide PD): 0.1297 | PEE ([1]; S2 Table Metabolomics, peptide PEE): 0.04353 | PVNF ([1]; S2 Table Metabolomics, peptide PVNF): 0.1047 | 3-phosphoglycerate ([1]; metabolite 3-phosphoglycerate, S2 Table Metabolomics): 0.09132 | ADP-D-glucose ([1]; metabolite ADP-D-glucose, S2 Table Metabolomics): 0.03984 | ATP ([1]; metabolite ATP, S2 Table Metabolomics): 0.0738 | CDP ([1]; metabolite CDP, S2 Table Metabolomics, change in metabolite level after compound treatment): 0.1835 | D-sedoheptulose-1/7-phosphate ([1]; metabolite D-sedoheptulose-1/7-phosphate, S2 Table Metabolomics, change in metabolite level after compound treatment): 0.08985 | FAD ([1]; metabolite FAD, S2 Table Metabolomics): 0.03625 | GMP ([1]; metabolite GMP, S2 Table Metabolomics, change in metabolite level after compound treatment): 0.3386 | NAD+ ([1]; metabolite NAD+, S2 Table Metabolomics): 0.04927 | NADP+ ([1]; metabolite NADP+, S2 Table Metabolomics): 0.004356 | Octoluse Bisphosphate ([1]; metabolite Octoluse Bisphosphate, S2 Table Metabolomics, change in metabolite level after compound treatment): 0.06954 | Pyroglutamic acid ([1]; metabolite Pyroglutamic acid, S2 Table Metabolomics): 0.3822 | UDP-D-glucose ([1]; metabolite UDP-D-glucose, S2 Table Metabolomics): 0.04537 | UDP-D-glucuronate ([1]; metabolite UDP-D-glucuronate, S2 Table Metabolomics): -0.02953 | UDP-N-acetyl-glucosamine ([1]; metabolite UDP-N-acetyl-glucosamine, S2 Table Metabolomics): 0.08846 | UDP ([1]; metabolite UDP, S2 Table Metabolomics, change in metabolite level after compound treatment): 0.2013 | UMP ([1]; metabolite UMP, S2 Table Metabolomics, change in metabolite level after compound treatment): 0.2191 | UTP ([1]; metabolite UTP, S2 Table Metabolomics, change in metabolite level after compound treatment): 0.01852 | a-ketoglutarate ([1]; metabolite a-ketoglutarate, S2 Table Metabolomics): 0.02481 | citrate/isocitrate ([1]; metabolite citrate/isocitrate, S2 Table Metabolomics, change in metabolite level after compound treatment): -0.02888 | cytidine ([1]; metabolite cytidine, S2 Table Metabolomics): -0.05556 | dATP ([1]; metabolite dATP, S2 Table Metabolomics): -0.009271 | dGMP/AMP ([1]; metabolite dGMP/AMP, S2 Table Metabolomics, change in metabolite level after compound treatment): 0.09845 | fumarate ([1]; metabolite fumarate, S2 Table Metabolomics, change in metabolite level after compound treatment): 0.08721 | glucose-1/6-phosphate ([1]; metabolite glucose-1/6-phosphate, S2 Table Metabolomics, change in metabolite level after compound treatment): -0.03526 | glycerate ([1]; metabolite glycerate, S2 Table Metabolomics, change in metabolite level after compound treatment): 0.2426 | guanine ([1]; metabolite guanine, S2 Table Metabolomics, change in metabolite level after compound treatment): 0.0471 | guanosine ([1]; metabolite guanosine, S2 Table Metabolomics, change in metabolite level after compound treatment): 0.114 | hypoxanthine ([1]; metabolite hypoxanthine, S2 Table Metabolomics): -0.07881 | indole ([1]; metabolite indole, S2 Table Metabolomics): 0.1523 | inosine ([1]; metabolite inosine, S2 Table Metabolomics, change in metabolite level after compound treatment): -0.03708 | 2_3-Diphosphoglyceric acid [1, 2]: 0.1949 | 4-phosphopantothenate [1, 2]: 0.1246 | 6-phospho-D-gluconate [1, 2]: 0.07439 | FMN [1, 2]: 0.2041 | IMP [1, 2]: -0.02839 | Pyrophosphate [1, 2]: 0.1402 | Sedoheptoluse bisphosphate [1, 2]: 0.05967 | cyclic-AMP [1, 2]: 0.07392 | glutathione disulfide [1, 2]: 0.1287 | lactate [1, 2]: 0.06153 | myo-inositol [1, 2]: 0.04445 | nicotinate ([1]; metabolite nicotinate, S2 Table Metabolomics): 0.03208 | ornithine ([1]; metabolite ornithine, S2 Table Metabolomics): -0.1593 | phosphoenolpyruvate ([1]; metabolite phosphoenolpyruvate, S2 Table Metabolomics): 0.09247 | pyruvate ([1]; metabolite pyruvate, S2 Table Metabolomics, change in metabolite level after compound treatment): -0.02843 | ribose-phosphate ([1]; metabolite ribose-phosphate, S2 Table Metabolomics): -0.3604 | sarcosine/alanine ([1]; metabolite sarcosine/alanine, S2 Table Metabolomics, change in metabolite level after compound treatment): 0.3511 | sn-glycerol-3-phosphate ([1]; metabolite sn-glycerol-3-phosphate, S2 Table Metabolomics): 0.4063 | succinate/methylmalonic acid ([1]; metabolite succinate/methylmalonic acid, S2 Table Metabolomics, change in metabolite level after compound treatment): 0.003908 | uridine ([1]; metabolite uridine, S2 Table Metabolomics, change in metabolite level after compound treatment): 0.1407 | xanthosine ([1]; metabolite xanthosine, S2 Table Metabolomics, change in metabolite level after compound treatment): 0.3607
